Values of other authors as cited in patent US11122797B2, “Pest repellent material” (JGC CATALYSTS AND CHEMICALS LTD., priority 2017, dated 2021).

Conditions: within 6 hours

## CCN(CC)C(=O)c1cccc(C)c1 [DEET, N, N-diethyl-m-toluamide]
  DEET applied to the skin transdermally absorbed: about 50%
